IC50 data for 20 molecules are collected here from BindingDB's records for doi:10.1016/j.bmcl.2012.12.028 (Pfizer, 2013).

The test concerns the target T1, P-selectin (Homo sapiens, UniProt P16109).
T1 sequence (P16109 whole entry): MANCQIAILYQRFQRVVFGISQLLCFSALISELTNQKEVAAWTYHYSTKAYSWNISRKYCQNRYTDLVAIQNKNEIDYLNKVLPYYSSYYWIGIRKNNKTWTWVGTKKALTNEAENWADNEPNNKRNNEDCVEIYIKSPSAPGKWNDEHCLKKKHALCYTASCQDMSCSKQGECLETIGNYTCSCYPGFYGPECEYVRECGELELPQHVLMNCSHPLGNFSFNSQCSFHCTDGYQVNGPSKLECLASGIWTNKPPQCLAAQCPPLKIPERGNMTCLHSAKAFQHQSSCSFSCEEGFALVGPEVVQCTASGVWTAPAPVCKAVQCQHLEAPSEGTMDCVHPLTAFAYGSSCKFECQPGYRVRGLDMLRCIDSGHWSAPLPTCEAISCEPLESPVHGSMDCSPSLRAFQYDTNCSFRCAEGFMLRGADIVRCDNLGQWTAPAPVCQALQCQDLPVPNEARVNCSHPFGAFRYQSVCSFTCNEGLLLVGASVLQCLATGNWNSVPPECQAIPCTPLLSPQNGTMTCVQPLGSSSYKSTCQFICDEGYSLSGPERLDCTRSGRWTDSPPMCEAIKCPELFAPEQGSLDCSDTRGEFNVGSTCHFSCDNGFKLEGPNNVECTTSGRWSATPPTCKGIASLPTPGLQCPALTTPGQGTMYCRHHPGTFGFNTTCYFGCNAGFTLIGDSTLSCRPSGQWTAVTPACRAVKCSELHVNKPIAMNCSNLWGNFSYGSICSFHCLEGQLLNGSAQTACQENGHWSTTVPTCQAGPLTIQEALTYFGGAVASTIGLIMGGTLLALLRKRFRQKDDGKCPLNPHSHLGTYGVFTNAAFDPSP
Put plainly: Inhibition of P-selectin aggregation in platelet surface (unknown origin).

Each structure is given as a SMILES string.

The IC50 is the midpoint of a concentration-inhibition curve. A low value points to higher potency. Molecule `O=C(NCCCN1CCOC1=O)c1cnc(NCc2cc(Cl)ccc2Cl)nc1NC1CCCC1` returned an IC50 of 7.4 µM.
To `O=C(NCCCN1CCCC1=O)c1cnc(NCc2cc(Cl)ccc2Cl)nc1NC1CCCC1` belongs 3.1 µM; to `COc1ccccc1CNc1ncc(C(=O)NCCCN2CCCC2=O)c(NC2CCCC2)n1`, 17 µM.
Take `COc1ccccc1CNc1ncc(C(=O)NC2CCN(C)CC2)c(NC2CCCC2)n1`: the 50% inhibitory concentration (IC50) turned out to be 1.5 µM.
To `Cc1cc(-c2cnc(Nc3cc(Cl)cc(Cl)c3)nc2NC2CCC(N(C)C)CC2)on1` (stereo not given) belongs 1 µM.
For the molecule `CN1CCC(NC(=O)c2cnc(Nc3cc(Cl)cc(Cl)c3)nc2N[C@@H]2COC[C@H]2O)CC1`, the IC50 amounted to 2.2 µM.
To `CN1CCC(NC(=O)c2cnc(Nc3cc(Cl)cc(Cl)c3)nc2NC2CCC(N(C)C)CC2)CC1` (stereo not given) belongs 0.4 µM.
To `CN1CCC(NC(=O)c2cnc(NCc3cc(Cl)ccc3Cl)nc2NC2CCCC2)CC1` belongs 1.2 µM.
To `O[C@@H]1COC[C@H]1Nc1nc(Nc2cc(Cl)cc(Cl)c2)ncc1Br` belongs 3.9 µM.
`O[C@@H]1COC[C@H]1Nc1nc(Nc2cc(Cl)cc(Cl)c2)ncc1-c1ccc(F)cc1` returned an IC50 of over 80 µM.
To `O[C@@H]1COC[C@H]1Nc1nc(Nc2cc(Cl)cc(Cl)c2)ncc1-c1cccnc1` belongs 3 µM.
To `Cc1cc(-c2cnc(Nc3cc(Cl)cc(Cl)c3)nc2NC2CCNCC2)on1` belongs 1.6 µM; to `CC[C@@H](CO)Nc1nc(Nc2cc(Cl)cc(Cl)c2)ncc1C(=O)NC1CCN(C)CC1`, 0.58 µM; to `CN1CCC(NC(=O)c2cnc(Nc3cc(Cl)cc(Cl)c3)nc2N[C@H]2CCCCNC2=O)CC1`, 0.43 µM.
To `CN1CCC(NC(=O)c2cnc(Nc3cc(Cl)cc(Cl)c3)nc2NC2CCOCC2)CC1` belongs 1.2 µM; to `CN1CCC(NC(=O)c2cnc(NCc3cc(Cl)ccc3Cl)nc2NC2CCC(N(C)C)CC2)CC1` (stereo not given), 1.1 µM; to `CN1CCC(NC(=O)c2cnc(NCc3cc(Cl)ccc3Cl)nc2NC2CCNCC2)CC1`, over 80 µM.
With `COc1ccccc1CNc1ncc(C(=O)NCCCCN(C)C)c(NC2CCCC2)n1`, half-maximal inhibition (IC50) required 7.1 µM.
To `COc1ccccc1CNc1ncc(C(=O)NCCNC(C)=O)c(NC2CCCC2)n1` belongs 6.6 µM.
To `COc1ccccc1CNc1ncc(C(=O)NCCCO)c(NC2CCCC2)n1` belongs 10 µM.
